Test results taken from the supplement of paper PMC10307832.

Experiments:
Assay in all cases: relative viability (nuclei count vs DMSO), 5 days (fraction); higher = more cells survive
[1] = compound: O=C(/C=C/c1ccccc1)NC(NC(=S)Nc1cccc2cccnc12)C(Cl)(Cl)Cl [Salubrinal] + Nc1ncn([C@H]2C[C@H](O)[C@@H](CO)O2)c(=O)n1 [Decitabine] (partner 2 µM)
Outline: (§1)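 Lung cancer cell lines in 1536-well plates got either a single drug or a fixed anchor-drug dose together with five library-drug doses (not always all listed) in √10 steps, by pin tool, on the day after seeding. Nuclei were counted after 5 days, and relative viability is the treated-to-vehicle ratio of nuclei counts. Values are medians of duplicate plates.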

[2] = compound: O=C(/C=C/c1ccccc1)NC(NC(=S)Nc1cccc2cccnc12)C(Cl)(Cl)Cl [Salubrinal] + Cc1cc(Nc2cc(N3CCN(C)CC3)nc(Sc3ccc(NC(=O)C4CC4)cc3)n2)n[nH]1 [Tozasertib] (partner 0.1 µM)
Outline: as §1

[3] = compound: Cc1ccc2nc(NCCN)c3ncc(C)n3c2c1 + O=C(c1cc(Cc2n[nH]c(=O)c3ccccc23)ccc1F)N1CCN(C(=O)C2CC2)CC1 [Olaparib] (partner 8 µM)
Outline: as §1

[4] = compound: Cc1ccc2nc(NCCN)c3ncc(C)n3c2c1 + CS(=O)(=O)CCNCc1ccc(-c2ccc3ncnc(Nc4ccc(OCc5cccc(F)c5)c(Cl)c4)c3c2)o1 [Lapatinib] (partner 2 µM)
Outline: as §1

| Cell Line | relative viability ([1]; first compound 0.08 µM) | relative viability ([1]; first compound 0.253 µM) | relative viability ([1]; first compound 0.8 µM) | relative viability ([1]; first compound 2.53 µM) | relative viability ([1]; first compound 8 µM) | relative viability ([2]; first compound 0.08 µM) | relative viability ([2]; first compound 0.253 µM) | relative viability ([2]; first compound 0.8 µM) | relative viability ([2]; first compound 2.53 µM) | relative viability ([2]; first compound 8 µM) | relative viability ([3]; first compound 0.04 µM) | relative viability ([3]; first compound 0.1265 µM) | relative viability ([3]; first compound 0.4 µM) | relative viability ([3]; first compound 1.265 µM) | relative viability ([3]; first compound 4 µM) | relative viability ([4]; first compound 0.04 µM) | relative viability ([4]; first compound 0.1265 µM) | relative viability ([4]; first compound 0.4 µM) | relative viability ([4]; first compound 1.265 µM) | relative viability ([4]; first compound 4 µM) |
| --- | --- | --- | --- | --- | --- | --- | --- | --- | --- | --- | --- | --- | --- | --- | --- | --- | --- | --- | --- | --- |
| LCLC-103H | 0.772 | 0.696 | 0.718 | 0.782 | 0.608 | 0.487 | 0.445 | 0.404 | 0.498 | 0.42 | 0.752 | 0.748 | 0.778 | 0.743 | 0.739 | – | – | – | – | – |
| NCI-H441 | 0.235 | 0.243 | 0.265 | 0.269 | 0.222 | 0.554 | 0.431 | 0.74 | 0.576 | 0.448 | 0.631 | 0.384 | 0.622 | 0.646 | 0.549 | – | – | – | – | – |
| NCI-H522 | 0.711 | 1.19 | 0.617 | 0.705 | 0.729 | 0.566 | 0.588 | 0.524 | 0.589 | 0.569 | 0.62 | 0.708 | 0.585 | 0.648 | 0.635 | – | – | – | – | – |
| NCI-H1299 | – | – | – | – | – | – | – | – | – | – | 0.973 | 0.965 | 0.985 | 0.891 | 0.767 | 0.957 | 0.935 | 0.954 | 0.911 | 0.809 |
| NCI-H1563 | – | – | – | – | – | – | – | – | – | – | – | – | – | – | – | 0.963 | 1 | 0.88 | 1.15 | 0.88 |
| NCI-H1623 | – | – | – | – | – | 0.431 | 0.434 | 0.445 | 0.396 | 0.412 | – | – | – | – | – | – | – | – | – | – |
| NCI-H1648 | 0.615 | 0.483 | 0.632 | 0.493 | 0.366 | 0.466 | 0.586 | 0.334 | 0.501 | 0.247 | 1.08 | 0.846 | 0.789 | 0.843 | 0.666 | – | – | – | – | – |
| NCI-H1703 | – | – | – | – | – | – | – | – | – | – | 0.393 | 0.362 | 0.619 | 0.47 | 0.437 | 1.15 | 0.958 | 1.03 | 1.19 | 0.997 |
| NCI-H1792 | 0.608 | – | 0.741 | 0.49 | 0.405 | – | – | – | – | – | 0.499 | 0.279 | – | 0.458 | 0.295 | 0.944 | 0.904 | 0.837 | 0.857 | 0.81 |
| NCI-H2228 | – | – | – | – | – | 0.268 | 0.304 | 0.283 | 0.222 | 0.197 | 0.721 | 0.692 | 0.614 | 0.65 | 0.633 | 1.07 | 1.3 | 0.884 | 1.15 | 1.04 |
| NCI-H2342 | 0.797 | 0.82 | 0.657 | 0.769 | 0.595 | 0.457 | 0.503 | 0.527 | 0.583 | 0.533 | 0.593 | 0.439 | 0.453 | 0.411 | 0.503 | – | – | – | – | – |
| SW 900 | 0.483 | 0.466 | 0.512 | 0.419 | 0.519 | 0.539 | – | 0.681 | 0.568 | 0.337 | – | 0.865 | 0.884 | 0.874 | 0.827 | – | – | – | – | – |
